The results in this text go back to ChEMBL document CHEMBL1165912, “Synthesis and binding analysis of unique AG2 pentasaccharide to human Siglec-2 using NMR techniques” (Bioorg Med Chem, 2010).

The term Kd denotes the free concentration of one partner at which half of the binding sites on the other are occupied at equilibrium, for simple one-to-one binding. Read a high Kd as weaker binding.

This experiment addresses T1, B-cell receptor CD22 (Homo sapiens, UniProt P20273).
T1 sequence (P20273 whole entry): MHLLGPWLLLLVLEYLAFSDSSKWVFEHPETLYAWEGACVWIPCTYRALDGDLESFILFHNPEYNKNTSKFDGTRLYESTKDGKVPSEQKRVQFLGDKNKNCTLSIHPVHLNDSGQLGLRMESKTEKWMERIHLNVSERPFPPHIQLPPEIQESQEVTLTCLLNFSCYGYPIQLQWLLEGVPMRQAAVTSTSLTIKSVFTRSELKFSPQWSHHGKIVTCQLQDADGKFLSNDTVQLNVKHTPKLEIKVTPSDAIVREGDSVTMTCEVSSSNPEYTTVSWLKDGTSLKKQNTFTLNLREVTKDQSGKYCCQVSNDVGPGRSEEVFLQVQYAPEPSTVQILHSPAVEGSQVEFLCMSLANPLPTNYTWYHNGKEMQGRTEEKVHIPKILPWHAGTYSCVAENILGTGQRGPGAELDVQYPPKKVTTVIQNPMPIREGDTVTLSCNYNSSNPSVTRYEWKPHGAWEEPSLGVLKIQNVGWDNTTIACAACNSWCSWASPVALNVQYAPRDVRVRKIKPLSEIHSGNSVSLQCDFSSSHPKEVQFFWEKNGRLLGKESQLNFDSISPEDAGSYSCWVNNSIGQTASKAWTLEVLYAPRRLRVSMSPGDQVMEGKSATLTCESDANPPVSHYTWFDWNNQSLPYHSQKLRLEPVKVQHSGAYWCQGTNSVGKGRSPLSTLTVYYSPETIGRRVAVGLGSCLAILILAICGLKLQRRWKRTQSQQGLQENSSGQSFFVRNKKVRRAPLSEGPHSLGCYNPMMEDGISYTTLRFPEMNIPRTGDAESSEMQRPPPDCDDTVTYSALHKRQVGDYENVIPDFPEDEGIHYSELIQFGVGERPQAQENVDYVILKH
In words: Binding affinity to human SIGLEC2 by saturation transfer difference-titration assay.

Regarding `CC(=O)N[C@H]1[C@@H]([C@H](O)[C@H](O)CO)O[C@@](O[C@H]2[C@@H](O)[C@@H](CO)O[C@@H](O[C@H]3[C@H](O)[C@@H](O)[C@H](OCC[Si](C)(C)C)O[C@@H]3CO)[C@@H]2O)(C(=O)O)C[C@@H]1O[C@H]1O[C@H](CO)[C@H](O)[C@H](O[C@@H]2O[C@@H]([C@H](O)CO)[C@H](O)[C@H]2O)[C@H]1O` (stereo in doubt), binding was characterised by a dissociation constant (Kd) of 2000 µM. That is a millimolar value.
